In ChEMBL document CHEMBL1159288, “Anti-AIDS agents, 21. Triterpenoid saponins as anti-HIV principles from fruits of Gleditsia japonica and Gymnocladus chinensis, and a structure-activity correlation” (J Nat Prod, 1995) one finds selectivity ratio, EC50 and IC50 data, which are given here for 17 compounds.

Structures are written as SMILES.

Data set [1] can be described thus: Therapeutic index, ratio of IC50 for human H9 cells to EC50 for HIV1 3B. Conditions: H9 cells (cytotoxicity) and HIV-1 3B (antiviral), read-out: TI. The data set is classed as cell-based.
Data set [2] deals with Human immunodeficiency virus 1. In words: Antiviral activity against HIV1 3B in human H9 cells assessed as inhibition of viral replication after 3 days by p24 antigen capture assay. The data set is classed as functional, organism-based. Conditions: Human immunodeficiency virus 1, 3B, H9, 72 h.
A further data set deals with H9. In words: Cytotoxicity against human H9 cells after 3 days. Conditions: H9, 72 h. Format: cell-based.

Consider `CCCC(=O)O[C@H]1CC[C@]2(C)[C@H]3CC=C4[C@H]5CC(C)(C)CC[C@]5(C(=O)OC)[C@H](O)C[C@@]4(C)[C@]3(C)CC[C@H]2C1(C)C`, for which, in data set [1], the selectivity ratio came to 1. Moreover, in data set [2], the EC50 was found to be 27 µM. In the data set with H9, this compound registered an IC50 of 27 µM.

As for `CC1(C)CC[C@]2(C(=O)O)[C@H](O)C[C@]3(C)C(=CC[C@@H]4[C@@]5(C)CC[C@H](O[C@@H]6O[C@H](CO[C@@H]7OC[C@H](O)[C@H](O)[C@H]7O)[C@@H](O)[C@H](O)[C@H]6O)C(C)(C)[C@@H]5CC[C@]43C)[C@H]2C1`, the selectivity ratio in data set [1] was found to be 3.8. Further, the EC50 in data set [2] was 13 µM. Also, the half-maximal inhibitory concentration (IC50) with H9 is 50 µM.

Take `CC1(C)C[C@@H]2C3=CC[C@@H]4[C@@]5(C)C[C@H](O)[C@H](O[C@@H]6O[C@H](CO[C@@H]7OC[C@H](O)[C@H](O)[C@H]7O[C@@H]7OC[C@@H](O)[C@H](O)[C@H]7O)[C@@H](O)[C@H](O)[C@H]6O)[C@@](C)(CO)[C@@H]5CC[C@@]4(C)[C@]3(C)C[C@H](O)[C@@]23C[C@@H]1OC3=O`: in data set [1], the selectivity ratio is > 1. Besides, in data set [2], the EC50 is 100 µM. In addition, the IC50 in the data set with H9 is > 100 µM.

On to `CCCCC(=O)O[C@H]1CC[C@]2(C)[C@H]3CC=C4[C@H]5CC(C)(C)CC[C@]5(C(=O)OC)[C@H](OC(=O)CCCC)C[C@@]4(C)[C@]3(C)CC[C@H]2C1(C)C`, for which the selectivity ratio in data set [1] was 1.8. The EC50 in data set [2] worked out at 31 µM. The compound also yielded an IC50 in the data set on H9 of 54 µM.

In the case of `CC1(C)C[C@@H]2C3=CC[C@@H]4[C@@]5(C)C[C@H](O)[C@H](O)[C@@](C)(CO)[C@@H]5CC[C@@]4(C)[C@]3(C)C[C@H](O)[C@@]23C[C@@H]1OC3=O`, the selectivity ratio in data set [1] worked out at 5. In addition, the EC50 in data set [2] came out at 8 µM. This compound came in with an IC50 in the data set with H9 of 40 µM.

Turning to `C[C@@H]1O[C@@H](OC[C@H]2O[C@@H](OC(=O)[C@]34CCC(C)(C)C[C@@H]3C3=CC[C@@H]5[C@@]6(C)CC[C@H](O[C@@H]7O[C@H](CO[C@@H]8OC[C@H](O)[C@H](O)[C@H]8O[C@@H]8OC[C@@H](O)[C@H](O)[C@H]8O)[C@@H](O)[C@H](O)[C@H]7O)C(C)(C)[C@@H]6CC[C@@]5(C)[C@]3(C)C[C@H]4O)[C@H](O[C@@H]3O[C@@H](C)[C@H](O[C@@H]4OC[C@@H](O)[C@H](O[C@@H]5OC[C@@H](O)[C@H](O)[C@H]5O)[C@H]4O)[C@@H](O)[C@H]3O)[C@@H](O)[C@@H]2O)[C@H](O)[C@H](O)[C@H]1O`, the EC50 in data set [2] was > 100 µM. This compound had an IC50 in the data set with H9 of 43 µM.

Consider `COC(=O)[C@]12CCC(C)(C)C[C@@H]1C1=CC[C@@H]3[C@@]4(C)CC[C@H](O[C@@H]5O[C@H](CO[C@@H]6OC[C@H](O)[C@H](O)[C@H]6O[C@@H]6OC[C@@H](O)[C@H](O)[C@H]6O)[C@@H](O)[C@H](O)[C@H]5O)C(C)(C)[C@@H]4CC[C@@]3(C)[C@]1(C)C[C@H]2O`, for which, in data set [1], the selectivity ratio worked out at 2.2. Further, in data set [2], the EC50 came to 9.9 µM. Further, the midpoint of inhibition in the data set on H9, the IC50, lay at 22 µM.

Take `CC(=O)O[C@H]1CC[C@]2(C)[C@H]3CC=C4[C@H]5CC(C)(C)CC[C@]5(C(=O)O)[C@H](OC(C)=O)C[C@@]4(C)[C@]3(C)CC[C@H]2C1(C)C`: the selectivity ratio in data set [1] is 5.4. The EC50 in data set [2] was determined as 2.3 µM. Moreover, the midpoint of inhibition in the data set on H9, the IC50, lay at 13 µM.

Take `CCCC(=O)O[C@H]1CC[C@]2(C)[C@H]3CC=C4[C@H]5CC(C)(C)CC[C@]5(C(=O)OC)[C@H](OC(=O)CCC)C[C@@]4(C)[C@]3(C)CC[C@H]2C1(C)C`: in data set [1], the selectivity ratio was > 11. In addition, the EC50 in data set [2] worked out at 15 µM. Besides, the IC50 with H9 was > 160 µM.

For the compound `CCCCC(=O)O[C@H]1CC[C@]2(C)[C@H]3CC=C4[C@H]5CC(C)(C)CC[C@]5(C(=O)OC)[C@H](O)C[C@@]4(C)[C@]3(C)CC[C@H]2C1(C)C`, the selectivity ratio in data set [1] was found to be 5.9. The EC50 in data set [2] was 30 µM. This compound showed an IC50 in the data set on H9 of 180 µM.

`CC1(C)CC[C@]2(C(=O)O)[C@H](O)C[C@]3(C)C(=CC[C@@H]4[C@@]5(C)CC[C@H](O[C@@H]6O[C@H](CO[C@@H]7OC[C@H](O)[C@H](O)[C@H]7O[C@@H]7OC[C@@H](O)[C@H](O)[C@H]7O)[C@@H](O)[C@H](O)[C@H]6O)C(C)(C)[C@@H]5CC[C@]43C)[C@H]2C1`: the EC50 in data set [2] is > 100 µM. The IC50 in the data set with H9 was found to be 37 µM.

As to `COC(=O)[C@]12CCC(C)(C)C[C@@H]1C1=CC[C@@H]3[C@@]4(C)CC[C@H](OC(C)=O)C(C)(C)[C@@H]4CC[C@@]3(C)[C@]1(C)C[C@H]2O`, the selectivity ratio in data set [1] came out at 1.5. Also, the concentration for a half-maximal effect (EC50) in data set [2] was 5.1 µM. Half-maximal inhibition in the data set on H9 (IC50) required 7.6 µM.

Take `CC1(C)CC[C@]2(C(=O)O)[C@H](O)C[C@]3(C)C(=CC[C@@H]4[C@@]5(C)CC[C@H](O)C(C)(C)[C@@H]5CC[C@]43C)[C@H]2C1` [ECHINOCYSTIC ACID]: the half-maximal effective concentration (EC50) in data set [2] worked out at 42 µM. Further, in the data set on H9, the IC50 amounted to 74 µM.

`CC1(C)CC[C@]2(C(=O)O)[C@H](O)C[C@]3(C)C(=CC[C@@H]4[C@@]5(C)CC[C@H](O)C(C)(C)[C@@H]5CC[C@]43C)[C@@H]2C1` [ECHINOCYSTIC ACID]: in data set [1], the selectivity ratio came out at 1.8.

In the case of `C=C[C@@](C)(O)CC/C=C(\C)C(=O)O[C@H]1[C@H](OC[C@H]2O[C@@H](OC(=O)[C@]34CCC(C)(C)C[C@@H]3C3=CC[C@@H]5[C@@]6(C)CC[C@H](O[C@@H]7O[C@H](CO[C@@H]8OC[C@H](O)[C@H](O)[C@H]8O[C@@H]8OC[C@@H](O)[C@H](O)[C@H]8O)[C@@H](O)[C@H](O)[C@H]7O)C(C)(C)[C@@H]6CC[C@@]5(C)[C@]3(C)C[C@H]4O)[C@H](O[C@@H]3O[C@@H](C)[C@H](O[C@@H]4OC[C@@H](O)[C@H](O[C@@H]5OC[C@@H](O)[C@H](O)[C@H]5O)[C@H]4O)[C@@H](O)[C@H]3O)[C@@H](O)[C@@H]2O)O[C@@H](C)[C@H](O)[C@H]1OC(=O)/C(=C/CC[C@](C)(O)C=C)CO` [GLEDITSIA SAPONIN C], the selectivity ratio in data set [1] is 8.9. In data set [2], the concentration for a half-maximal effect (EC50) is 1.1 µM. For the same compound, in the data set with H9, the midpoint of inhibition, the IC50, lay at 9.8 µM.

Consider `C=C[C@](C)(CC/C=C(\C)C(=O)O[C@H]1C[C@@]2(C(=O)O[C@@H]3O[C@H](CO[C@@H]4O[C@@H](C)[C@H](O)[C@@H](O)[C@H]4O)[C@@H](O)[C@H](O)[C@H]3O[C@@H]3O[C@@H](C)[C@H](O[C@@H]4OC[C@@H](O)[C@H](O[C@@H]5OC[C@@H](O)[C@H](O)[C@H]5O)[C@H]4O)[C@@H](O)[C@H]3O)[C@H](CC1(C)C)C1=CC[C@@H]3[C@@]4(C)C[C@H](O)[C@H](O[C@@H]5O[C@H](CO[C@@H]6OC[C@H](O)[C@H](O)[C@H]6O[C@@H]6OC[C@@H](O)[C@H](O)[C@H]6O)[C@@H](O)[C@H](O)[C@H]5O)[C@@](C)(CO)[C@@H]4CC[C@@]3(C)[C@]1(C)C[C@@H]2O)O[C@@H]1OC[C@H](OC(=O)CC(C)C)[C@H](O[C@@H]2O[C@H](CO)[C@@H](O)[C@H](O)[C@H]2O)[C@H]1O` [GYMNOCLADUS SAPONIN G], for which the selectivity ratio in data set [1] was 5.2. The concentration for a half-maximal effect (EC50) in data set [2] came to 2.7 µM. The IC50 with H9 was 14 µM.

`COC(=O)[C@]12CCC(C)(C)C[C@@H]1C1=CC[C@@H]3[C@@]4(C)CC[C@H](O)C(C)(C)[C@@H]4CC[C@@]3(C)[C@]1(C)C[C@H]2O` [METHYL ECHINOCYSTATE]: in data set [1], the selectivity ratio worked out at 1.6. The EC50 in data set [2] came to 3.1 µM. The compound also yielded a concentration for half-maximal inhibition (IC50) with H9 of 4.9 µM.
